Experimental data reported in US8003682B2, “Indole compounds, a process for their preparation and pharmaceutical compositions containing them” (Les Laboratories Servier, priority 2006, dated 2011).

Tests used:
MT2 receptor = target: T1, MT2 receptor (Homo sapiens, UniProt P49286); test: Melatonin MT2 receptor binding study (2-[125I]-iodomelatonin competition); details: 2-[125I]-iodomelatonin radioligand, triplicate
T1 sequence (P49286 1-362): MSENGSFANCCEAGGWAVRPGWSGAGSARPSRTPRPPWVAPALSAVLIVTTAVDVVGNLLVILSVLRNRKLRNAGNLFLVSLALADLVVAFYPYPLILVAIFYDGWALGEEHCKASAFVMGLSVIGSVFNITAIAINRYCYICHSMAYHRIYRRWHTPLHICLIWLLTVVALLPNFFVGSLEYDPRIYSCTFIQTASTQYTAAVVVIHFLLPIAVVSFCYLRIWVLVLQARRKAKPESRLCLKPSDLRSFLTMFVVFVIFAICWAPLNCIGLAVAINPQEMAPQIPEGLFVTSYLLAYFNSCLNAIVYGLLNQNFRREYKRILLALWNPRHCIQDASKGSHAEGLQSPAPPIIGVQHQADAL
Protocol: (§1) The MT1 or MT2 receptor binding experiments are carried out using 2-[^125I]-iodomelatonin as reference radioligand. The radioactivity retained is determined using a liquid scintillation counter.
(§2) Competitive binding experiments are then carried out in triplicate using the various test compounds. A range of different concentrations is tested for each compound. The results enable the binding affinities (Ki) of the compounds tested to be determined.

MT1 receptor = MT1 receptor (Homo sapiens, UniProt P48039); test: Melatonin MT1 receptor binding study (2-[125I]-iodomelatonin competition); details: 2-[125I]-iodomelatonin radioligand, triplicate
Sequence of MT1 receptor (P48039 whole entry): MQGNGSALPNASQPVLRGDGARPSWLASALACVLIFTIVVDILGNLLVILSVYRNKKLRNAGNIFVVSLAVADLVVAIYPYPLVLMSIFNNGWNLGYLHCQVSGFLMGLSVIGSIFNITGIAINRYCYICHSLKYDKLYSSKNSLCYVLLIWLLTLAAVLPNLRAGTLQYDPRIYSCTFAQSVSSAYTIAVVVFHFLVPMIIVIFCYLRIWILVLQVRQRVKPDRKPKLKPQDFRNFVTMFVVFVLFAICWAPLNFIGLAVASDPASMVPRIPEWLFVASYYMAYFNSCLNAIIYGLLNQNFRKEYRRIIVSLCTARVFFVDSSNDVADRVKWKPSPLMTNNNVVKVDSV
Protocol: as §1, §2

Ki (MT2 receptor): 1 nM
Ki (MT1 receptor): 18 nM
SMILES: CNC(=O)c1cc2ccc(OC)cc2n1CCNC(C)=O [Example 1, 1-[2-(Acetylamino)ethyl]-6-methoxy-N-methyl-1H-indole-2-carboxamide]
